The values that follow come from US7611853B2, “Assay to screen for anti-malarials” (priority 2002, dated 2009).

Molecules are shown by their SMILES.

Test [1] relates to Plasmodium falciparum. Briefly: Growth inhibitory effect of GA on synchronous parasites (Giemsa-stained smears). In kind it is cell-based. The source says:
In order to check if GA could inhibit Plasmodium falciparum growth in vitro, we prepared highly synchronous ring-infected parasites using 5% sorbitol. These ring-staged parasites were suspended in RPMI to make 5% hematocrit. […] This correlates with elevated expression of Pfhsp90 in the trophozoite stage compared to ring stage.

Test [2] has as its system Plasmodium falciparum ring-infected erythrocytes. As to the kind of experiment: Anti-malarial effect of GA and HA on overall parasitemia (giemsa staining). It is filed as cell-based. As for the experimental part: To show the effects of GA on overall parasitemia, ring-infected erythrocytes were either treated with DMSO or with 5 μM GA for 48 hrs (culture was replenished with medium and GA every 24 hrs) and parasitemia was calculated by giemsa staining. While the mock-treated parasites multiplied at the end of 48 hrs, parasitemia was reduced to 50 percent in GA treated cultures by 48 hrs.

The term inhibition denotes the change of the read-out against control, counted positive when it falls.

In test [1] (Plasmodium falciparum, GA added in the trophozoite stage, 10 μM), `COC1=C2C[C@@H](C)C[C@H](OC)[C@H](O)[C@@H](C)/C=C(\C)[C@H](OC(N)=O)[C@@H](OC)/C=C\C=C(/C)C(=O)NC(=CC1=O)C2=O` [GA, Geldanamycin] came in with an inhibition at 10 µM of 100%. The “concentration of maximal growth inhibition” value in test [1] (ring-staged parasites, 24 h) turned out to be 5 µM. In addition, the “parasitemia reduced to” value in test [2] (ring-infected erythrocytes, 5 μM, 48 hrs, replenished every 24 hrs) worked out at 50%.

On to `CO[C@H]1[C@@H](OC)C[C@H](C)[C@@H](OC)C2=CC(=O)C=C(NC(=O)/C(C)=C/C=C\[C@H](OC)[C@@H](OC(N)=O)/C(C)=C/[C@@H]1C)C2=O` [HA, Herbimycin A], for which, in test [2], the “anti-malarial effect (summary statement)” value is given as “kill the malarial parasite at the stage of early trophozoite development”. Besides, the “concentration of maximal reduction in parasitemia” value in test [2] (0.5, 1, 5 and 10 μM tested, 48 hrs) came to 10 µM.
